Ki data for one compound are collected here from paper PMC2139966 (The Journal of Cell Biology, 1997).

The assay addresses band 3 (anion exchanger AE1). Put plainly: […]SO4/SO4 exchange in band […] proteoliposomes. It counts as biochemical, Oryctolagus cuniculus.

SMILES strings stand for the structures.

For orientation: Ki means a measure of affinity in units of concentration, obtained from inhibition or displacement. Low values mean tighter binding, high ones weaker binding. Take `O=[N+]([O-])c1ccc(/C=C/c2ccc([N+](=O)[O-])cc2S(=O)(=O)O)c(S(=O)(=O)O)c1` [DNDS, 4,4′-dinitorsostilbene-2,2′-disulfonic acid]: the Ki was found to be 2000 ± 1000 nM.
